What was measured:
UBA3 = assay: Western blot of UBA3 expression in RAW264.7 cells; assay type: cell-based, mouse; conditions: siRNA-transfected RAW264.7, FIG. 5B
Procedure: (§1) FIGS. 5A-5D are the data respectively depicting the effect of sRANKL on the neddylation pathway and the knockdown effect of UBA3 siRNA on macrophages during osteoclast differentiation according to example 4 of the present disclosure. FIG. 5A: RAW264.7 mouse macrophages were seeded on wells and were treated with various concentrations of sRANKL (0-100 ng/ml). After 72 hours' incubation, the cells were lysed and subjected to Western blotting analysis using specific antibodies in neddylation pathway. FIG. 5B: RAW264.7 mouse macrophages were seeded on wells and transfected with UBA3 or scrambled siRNA. After culture, the transfected cells were harvested, lysed, and further analyzed by Western Blot for checking NEDD8, UBA3, and APPBP1 expressions. FIGS. 5C and 5D: the UBA3 or scrambled siRNA transfected RAW264.7 cells were further treated with sRANKL (50 ng/ml), after 3-day induction, the morphological change of macrophages to TRAP-stained positive giant osteoclasts were photographed and further counted. Data are expressed as mean±SD where *p<0.05.
The RAW264.7 cells were starved with serum-free medium for six hours and then treated with the specified treatments. At indicated time points, the cells were washed with cold phosphate-buffered saline (PBS) and lysed in RIPA buffer containing complete protease inhibitor cocktail (Roche). […]

RAW264.7 cells = assay: UBA3 knockdown on osteoclast differentiation, count of TRAP-positive giant osteoclasts; assay type: cell-based, mouse; conditions: siRNA-transfected RAW264.7, sRANKL 50 ng/ml, 3 days, FIG. 5C-5D
Procedure: as §1, with “*p<0.05. […]” for “*p<0.05.”
Six hours' post-transfection, the cells were treated with sRANKL (50 ng/ml). Three days later, the effect of UBA3 knockdown on mature giant osteoclast formation on wells was photographed and counted. […]

Row | Substance | knockdown of UBA3 expression (UBA3) | differentiating number of giant osteoclasts (RAW264.7 cells)
1 | UBA3 siRNA 3: siRNA targeting UBA3, sense SEQ ID NO: 5, anti-sense SEQ ID NO: 6 (sense CCAAGCUCCAUUGUACCUUTT; antisense TTGGUUCGAGGUAACAUGGAA; chemistry not given here; one strand is listed 3' to 5') | can knockdown the expression of UBA3 | significantly diminished the differentiating number of giant osteoclasts
2 | UBA3 siRNA 2: siRNA targeting UBA3, sense SEQ ID NO: 3, anti-sense SEQ ID NO: 4 (sense GGAUCAAUGGAAUGCUGAUTT; antisense TTCCUAGUUACCUUACGACUA; chemistry not given here; one strand is listed 3' to 5') | can knockdown the expression of UBA3 | significantly diminished the differentiating number of giant osteoclasts

Reference: patent publication US10285994B2, “Method of preventing or treating osteoporosis by neddylation inhibitor” (Chang Gung University, priority 2017, dated 2019)
